A word on the IC50: it is the concentration needed to halve the response being measured. As usually defined, the GI50 is the concentration at which growth is held to half of that of the control.

Results on 13 compounds are retold here after patent US20250332173A1, “COMPOUNDS AND METHODS FOR MODULATING NUCLEIC ACID SPLICING” (REMIX THERAPEUTICS INC., priority 2021, published 2025).

A value given as a limit tells only on which side of the number the result lay.

The test system of one assay is Target C. In words: HiBiT protein abundance assay, Target C (Promega Nano-Glo HiBiT Lytic Detection System, knock-in K562 cell line). To be noted: Homo sapiens, K562, 24 h, HiBiT K562 cell line, 24 hours, top dose 10 μM; read-out: Effect on protein abundance, Target C (IC50 category). It is filed as cell-based, human. As to the method: (§1) • Promega Nano-Glo HiBiT Lytic Detection System (cat #N3030) • Corning 384-well TC-treated microplates (cat #3570) • Synthego Engineered Cells Knock-In Clones
(§2) Cells were maintained in IMDM with 10% FBS. Before the assay, cells were diluted with […] growth media (IMDM+[…] media) and were seeded in a 384-well plate at a density of 10,000 cells/well (for each cell line listed in Table 5). Each compound was prepared as a 10-point 3-fold serial dilution in DMSO with the top dose at a final concentration of 10 μM in the well. Unmodified K562 cells were added at the previously specified density with DMSO to serve as an assay baseline and positive control (PC) and DMSO only with the respective modified cell lines was added to the negative control (NC) columns. Final DMSO concentration was kept at or below 0.25%. Treated cell plates were placed in an incubator at 37° C. with […] for 24 hours. After 24 hours, 25 μL of Complete HiBit Lytic reagent was added to each well at room temperature (e.g. one plate requiring 10 mL Lytic Buffer, 100 μL LgBiT Protein, 200 μL Lytic Substrate), shaken for 5 minutes at 600 RPM, then left to sit for 10 minutes for signal to stabilize before reading on a Spark Cyto plate reader (Tecan) with a 500 ms measurement time.
(§3) To determine compound effects on protein abundance of each target in Table 5, the percent response for each respective cell line was calculated at each compound concentration as follows:
(§4) For the normalized response at each concentration, a four-parameter logistical regression was fit to the data and the response was interpolated at the […] to determine a concentration for protein abundance at […] the untreated control.
(In general: HiBiT is a short tag that completes a luciferase, so light tracks the accessible tagged protein.)

Assay [1] deals with K562 (human chronic myelogenous leukemia) cells. Description: Cell Titer Glo 2.0 cell viability assay. It is filed as cell-based. The following applies: Homo sapiens, K562, 72 h, K562 cells, 72 hours, Cell Titer Glo 2.0; read-out: K562 GI50. Background: In ATP-based viability assays light output follows the ATP content of the culture.
The next assay concerns HTT. In words: HiBiT protein abundance assay, HTT HiBiT K562 cell line. Type of assay: cell-based, human. The following applies: HiBiT K562 cell line, 24 hours, top dose 10 μM; read-out: Effect on protein abundance, HTT (IC50 category). Here is the method: (§5) Compounds described herein were used to screen for effects on quantitative protein abundance using a HiBit assay system (Promega). Quantitative protein abundance was determined by measuring the protein levels of HiBit-tagged protein targets expressed in cell culture via luminescence using the Nano-Glo HiBiT Lytic Detection System, which uses a split complementation assay format to reconstitute NanoBiT enzyme to generate a luminescent signal. A protein abundance assay was developed such that endogenous protein targets could be modified with the HiBiT peptide tag and their abundance could be assessed after compound treatment. Briefly, K562 cell lines containing a HiBiT-modification were treated with various compounds described herein (e.g., compounds of Formulas (I), (II), (III), (IV), (V), (VI), (VII), (VIII), or (IX)). After treatment for 24 hours, the protein abundance of a specific target was determined by measuring luminescence.
as §1, §2, §3, §4

The next assay has as its system MYB. Description: HiBiT protein abundance assay, MYB HiBiT K562 cell line. Type of assay: cell-based, human. To be noted: HiBiT K562 cell line, 24 hours, top dose 10 μM; read-out: Effect on protein abundance, MYB (IC50 category). As to the method: as §5, §1, §2, §3, §4

On to `Cc1cn2cc(-c3cc(O)c4c(=O)n(C5CCNC5)cnc4c3)cc(C#N)c2n1` (stereo not shown) [Compound 507, 6-[5-hydroxy-4-oxo-3-(pyrrolidin-3-yl)quinazolin-7-yl]-2-methylimidazo[1,2-a]pyridine-8-carbonitrile; trifluoroacetic acid], for which the concentration for half-maximal inhibition (IC50) in the assay on Target C is 1000 to 10000 nM; with HTT it was greater than 10000 nM; with MYB it was 1000 to 10000 nM. In addition, the 50% growth inhibitory concentration (GI50) in assay [1] fell in the range of 1000 to 10000 nM.
As for `Cc1nc2c(o1)CN(c1cc(F)c3c(=O)n(C4CCNCC4)cnc3c1)CC2` [Compound 508, 5-fluoro-7-{2-methyl-4H,6H,7H-[1,3]oxazolo[5,4-c]pyridin-5-yl}-3-(piperidin-4-yl)quinazolin-4-one; trifluoroacetic acid], the IC50 in the assay on Target C is greater than 10000 nM; with HTT, greater than 10000 nM; in the assay with MYB it was 1000 to 10000 nM. In addition, the GI50 in assay [1] was greater than 10000 nM.
For `Cn1cc2nc(-c3cc(O)c4c(=O)n(C5CCNC6(CC6)C5)ncc4c3)ccc2n1` (stereo not shown) [Compound 562], the IC50 in the assay with Target C, with HTT and in the assay with MYB was 100 to 1000 nM throughout. The concentration for 50% growth inhibition (GI50) in assay [1] lay in the range of 100 to 1000 nM.
Regarding `Cn1cc2nc(-c3cc(F)c4c(=O)n(C5CCNC6(CC6)C5)ncc4c3)ccc2n1` (stereo not shown) [Compound 563], the IC50 in the assay with Target C, with HTT and in the assay on MYB was 100 to 1000 nM each time. Further, the GI50 in assay [1] was in the range of 100 to 1000 nM.
For the compound `Cc1nc2c(C)cc(-c3cc(O)c4c(=O)n(C5CCNC6(CC6)C5)ncc4c3)cc2o1` (stereo not shown) [Compound 564], the half-inhibitory concentration (IC50) in the assay on Target C, in the assay with HTT and in the assay on MYB was 100 to 1000 nM in each case. Moreover, the GI50 in assay [1] is 100 to 1000 nM.
`Cc1cn2nc(-c3cc(F)c4c(=O)n(C5CCN(C)C6(CC6)C5)ncc4c3)cc(C)c2n1` (stereo not shown) [Compound 565]: the IC50 with Target C, in the assay with HTT and with MYB was less than 100 nM each time. For the same compound, the GI50 in assay [1] is 100 to 1000 nM.
On to `Cc1cn2nc(-c3cc(N)c4c(=O)n(C5CCNCC5)ncc4c3)cc(C)c2n1` [Compound 566], for which the IC50 with Target C, with HTT and in the assay on MYB was 100 to 1000 nM in each case. The 50% growth inhibitory concentration (GI50) in assay [1] lay in the range of 100 to 1000 nM.
Consider `Cc1cn2nc(-c3ccc4c(=O)c(C5CCNCC5)cn(C)c4c3)cc(C)c2n1` [Compound 590], for which the IC50 in the assay on Target C was 1000 to 10000 nM; with HTT, 1000 to 10000 nM; in the assay with MYB, 100 to 1000 nM. Further, the concentration for 50% growth inhibition (GI50) in assay [1] was in the range of 1000 to 10000 nM.
In the case of `Cc1cn2cc(-c3ccc4c(=O)c(C5CCNCC5)cn(C)c4c3)nc(C)c2n1` [Compound 591], the IC50 in the assay on Target C was greater than 10000 nM; in the assay with HTT, greater than 10000 nM; in the assay with MYB, 1000 to 10000 nM. The GI50 in assay [1] is 1000 to 10000 nM.
As for `Cc1cn2cc(-c3ncc4c(=O)n(C5CCNCC5)ccc4n3)cc(F)c2n1` [Compound 1213, 2-(8-fluoro-2-methylimidazo[1,2-a]pyridin-6-yl)-6-(piperidin-4-yl)pyrido[4,3-d]pyrimidin-5(6H)-one], the IC50 in the assay on Target C, in the assay with HTT and in the assay on MYB was 100 to 1000 nM each time. Also, the GI50 in assay [1] lay in the range of 100 to 1000 nM.
Turning to `COc1c(-c2cc3ccn(C4CCNCC4)c(=O)c3cn2)cc2cn(C)nc2c1C` [Compound 1218], the IC50 in the assay with Target C, in the assay on HTT and in the assay with MYB was greater than 10000 nM in each case. Also, the GI50 in assay [1] was greater than 10000 nM.
Take `Cc1c(O)c(-c2ncc3c(=O)n(C4CCNCC4)ccc3n2)cc2cn(C)nc12` [Compound 1224]: the IC50 with Target C is 100 to 1000 nM; in the assay with HTT it was less than 100 nM; with MYB it was less than 100 nM. Also, the GI50 in assay [1] was less than 100 nM.
Turning to `Cn1cc2cc(-c3ccc4c(=O)n(C5CCNCC5)ccc4n3)c(O)c(F)c2n1` [Compound 1226], the IC50 with Target C, in the assay on HTT and in the assay on MYB was less than 100 nM in each case. In assay [1], the GI50 was less than 100 nM.
